Measurements: patent publication US11807640B1 (priority 2023, dated 2023)
≈ marks a conversion by molar mass, not a printed value.

How the values were obtained:
[1] = tested on: MDR-MTB (Multidrug-resistant Mycobacterium tuberculosis); assay: microbe, parasite or virus in culture; type: cell-based; details: 192 h, read-out: MIC (μg/mL) MDR-MTB
[2] = tested on: XDR-MTB (Extensively drug-resistant Mycobacterium tuberculosis); assay: microbe, parasite or virus in culture; type: cell-based; details: 192 h, read-out: MIC (μg/mL) XDR-MTB

Compound	MIC [1]	MIC [2]
CCOC(=O)c1cc(C(=O)c2ccc(F)cc2)n2ccc(C(=O)OC(C)C)cc12 [KNV-4, 1-Ethyl 7-isopropyl 3-(4-fluorobenzoyl)indolizine-1,7-dicarboxylate]	4 µg/mL (≈ 10.1 µM)	32 µg/mL (≈ 80.5 µM)
COC(=O)c1c(C(=O)OC)c2cc(C(=O)OC(C)C)ccn2c1C(=O)c1ccc(Br)cc1 [KNV-7, 7-Isopropyl 1,2-dimethyl 3-(4-bromobenzoyl)indolizine-1,2,7-tricarboxylate]	8 µg/mL (≈ 15.9 µM)	8 µg/mL (≈ 15.9 µM)
